Substitutions are numbered along the chain they refer to.
Legend:
[1] = target: T1, FLT3 D835V (Homo sapiens, UniProt P36888, D835V); experiment: DiscoverX KINOMEscan competition binding, FLT3 D835V
T1 construct: purchased DiscoverX (KINOMEscan)
T1 sequence (P36888 27-993 D835V): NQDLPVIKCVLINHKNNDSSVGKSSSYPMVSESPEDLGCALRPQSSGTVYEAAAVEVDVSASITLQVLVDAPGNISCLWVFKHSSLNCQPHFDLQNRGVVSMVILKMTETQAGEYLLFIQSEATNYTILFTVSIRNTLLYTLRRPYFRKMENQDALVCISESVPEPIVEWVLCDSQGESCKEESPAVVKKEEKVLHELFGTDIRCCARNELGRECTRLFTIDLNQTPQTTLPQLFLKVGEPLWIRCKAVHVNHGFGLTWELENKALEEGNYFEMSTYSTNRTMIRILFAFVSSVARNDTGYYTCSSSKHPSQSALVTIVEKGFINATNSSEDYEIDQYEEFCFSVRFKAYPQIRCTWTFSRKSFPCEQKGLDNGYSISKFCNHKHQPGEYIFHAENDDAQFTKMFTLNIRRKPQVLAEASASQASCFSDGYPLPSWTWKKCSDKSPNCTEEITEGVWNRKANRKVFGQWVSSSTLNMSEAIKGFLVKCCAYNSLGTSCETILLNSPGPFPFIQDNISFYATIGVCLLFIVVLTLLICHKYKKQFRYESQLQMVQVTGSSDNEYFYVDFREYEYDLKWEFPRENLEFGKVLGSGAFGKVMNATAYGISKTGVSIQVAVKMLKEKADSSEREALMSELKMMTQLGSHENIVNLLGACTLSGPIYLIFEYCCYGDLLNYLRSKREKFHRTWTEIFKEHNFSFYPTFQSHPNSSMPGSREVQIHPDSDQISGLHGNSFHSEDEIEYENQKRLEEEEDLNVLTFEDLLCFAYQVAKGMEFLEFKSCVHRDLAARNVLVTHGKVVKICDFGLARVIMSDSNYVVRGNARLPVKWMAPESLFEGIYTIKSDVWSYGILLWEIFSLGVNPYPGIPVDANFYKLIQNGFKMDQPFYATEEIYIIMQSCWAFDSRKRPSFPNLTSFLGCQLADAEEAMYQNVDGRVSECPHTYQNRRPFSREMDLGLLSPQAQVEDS

[2] = target: T2, FLT3 D835Y (Homo sapiens, UniProt P36888, D835Y); experiment: DiscoverX KINOMEscan competition binding, FLT3 D835Y
T2 construct: purchased DiscoverX (KINOMEscan)
T2 sequence (P36888 27-993 D835Y): T1 sequence (P36888 27-993 D835V) with V809Y

[3] = target: T3, FLT3 ITD, F691L (Homo sapiens, UniProt P36888, F691L, form not given); experiment: DiscoverX KINOMEscan competition binding, FLT3 ITD, F691L; conditions: read-out: FLT3 ITD, F691L Kd
T3 sequence (P36888 1-993 F691L): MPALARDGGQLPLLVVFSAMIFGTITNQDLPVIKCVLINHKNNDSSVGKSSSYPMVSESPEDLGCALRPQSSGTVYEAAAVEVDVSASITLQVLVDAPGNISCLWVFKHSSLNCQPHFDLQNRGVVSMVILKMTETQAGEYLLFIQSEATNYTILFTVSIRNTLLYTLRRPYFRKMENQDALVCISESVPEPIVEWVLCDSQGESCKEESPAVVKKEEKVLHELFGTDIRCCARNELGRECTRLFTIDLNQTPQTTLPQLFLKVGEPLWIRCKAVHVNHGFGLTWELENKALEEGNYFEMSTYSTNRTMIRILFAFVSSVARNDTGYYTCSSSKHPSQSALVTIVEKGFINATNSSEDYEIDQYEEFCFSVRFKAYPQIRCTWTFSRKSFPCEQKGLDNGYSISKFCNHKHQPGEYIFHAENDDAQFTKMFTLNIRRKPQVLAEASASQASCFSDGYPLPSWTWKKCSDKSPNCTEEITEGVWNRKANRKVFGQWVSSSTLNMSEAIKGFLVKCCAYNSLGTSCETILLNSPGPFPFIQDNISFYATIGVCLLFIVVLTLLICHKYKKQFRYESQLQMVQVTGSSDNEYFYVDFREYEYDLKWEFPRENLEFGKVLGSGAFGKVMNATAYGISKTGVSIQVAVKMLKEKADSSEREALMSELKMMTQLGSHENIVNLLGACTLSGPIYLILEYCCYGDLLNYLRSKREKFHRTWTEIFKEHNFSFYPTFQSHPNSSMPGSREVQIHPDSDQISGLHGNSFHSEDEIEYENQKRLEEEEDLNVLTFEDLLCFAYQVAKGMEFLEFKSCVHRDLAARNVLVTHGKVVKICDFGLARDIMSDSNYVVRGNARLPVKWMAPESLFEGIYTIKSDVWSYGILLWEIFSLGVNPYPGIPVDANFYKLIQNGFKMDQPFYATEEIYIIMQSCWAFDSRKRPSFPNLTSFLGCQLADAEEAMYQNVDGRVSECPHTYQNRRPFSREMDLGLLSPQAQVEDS

Structure (SMILES)	Kd [1]	Kd [2]	Kd [3]
COc1cc2ncc(-c3ccnc(N[C@H]4CNCC[C@@H]4F)n3)n2nc1C1CC1 [Compound 51, 4-(6-cyclopropyl-7-methoxyimidazo[1,2-b]pyridazin-3-yl)-N-((3S,4S)-4-fluoropiperidin-3-yl)pyrimidin-2-amine]	110 pM	350 pM	80 pM
COc1cc2ncc(-c3ccnc(N[C@H]4CNC[C@@H]4F)n3)n2nc1C1CC1 [Compound 49, 4-(6-cyclopropyl-7-methoxyimidazo[1,2-b]pyridazin-3-yl)-N-((3S,4S)-4-fluoropyrrolidin-3-yl)pyrimidin-2-amine]	60 pM	410 pM	85 pM
CC(O)(c1cn2c(-c3ccnc(N[C@H]4CNCC[C@@H]4F)n3)cnc2cn1)C(F)(F)F (single isomer, unassigned) [Compound 72]	470 pM	690 pM	1800 pM
COc1cc2ncc(-c3cncc(N[C@H]4CNCC[C@@H]4F)n3)n2nc1C1CC1 [Compound 24, 6-(6-cyclopropyl-7-methoxyimidazo[1,2-b]pyridazin-3-yl)-N-((3S,4S)-4-fluoropiperidin-3-yl)pyrazin-2-amine]	63 pM	740 pM	48 pM
COc1cc2ncc(-c3cncc(N[C@H]4CNC[C@@H]4F)n3)n2nc1C1CC1 [Compound 22, 6-(6-cyclopropyl-7-methoxyimidazo[1,2-b]pyridazin-3-yl)-N-((3S,4S)-4-fluoropyrrolidin-3-yl)pyrazin-2-amine]	150 pM	600 pM	78 pM
F[C@H]1CCNC[C@@H]1Nc1cncc(-c2cnc3cc(OC4CC4)ccn23)n1 [Compound 12, 6-(7-cyclopropoxyimidazo[1,2-a]pyridin-3-yl)-N-((3S,4S)-4-fluoropiperidin-3-yl)pyrazin-2-amine]	160 pM	1100 pM	46 pM
COc1cc2ncc(-c3ccnc(N[C@@H]4CCCNC4)n3)n2cc1C(C)(C)O [Compound 44, (R)-2-(7-methoxy-3-(2-(piperidin-3-ylamino)pyrimidin-4-yl)imidazo[1,2-a]pyridin-6-yl)propan-2-ol]	42 pM	150 pM	92 pM

Source: US20250154144A1 (CHILDREN'S HOSPITAL MEDICAL CENTER, priority 2021, published 2025)
